Values after ≈ are worked out from the molar mass of the structure shown.
Conditions: buffer; pH 7.4; 200.0 µM

Compound	solubility kinetic [µg/mL]
CC(=O)Nc1ccc(NC(=O)/C=C/c2ccc(Cl)cc2)cc1	< 0.3
O=C(Cn1cc(/C=C\[N+](=O)[O-])c2ccccc21)Nc1ccccc1	2.2 (≈ 6.85 µM)
CC1CC1C(=O)OCC(=O)Nc1ccc(S(=O)(=O)N2CCOCC2)cc1 (stereo not given)	> 57.4
CCOc1ccc(NC(=O)COC(=O)C2CC2C)cc1 (stereo not given)	> 41.6
Cc1cc(OCCCCN2C(=O)NC(C)(C)C2=O)ccc1[N+](=O)[O-]	> 50.3
CCCC(=O)NC(c1ccccc1)c1c(O)ccc2ccccc12 (stereo not given)	< 0.7
COc1ccc(Nc2ccncc2[N+](=O)[O-])cc1	> 36.8
CC1CCCN(CCS(=O)(=O)c2ccccc2)C1 (stereo not given)	39.5 (≈ 148 µM)
CC1(C)CC(=O)C=C(Nc2ccc(C(=O)O)c(O)c2)C1	> 41.3
CCC(NC(=O)c1ccccc1Br)c1ccccc1 (stereo not given)	> 47.7
Cc1ccc(NC(=O)Cn2ccc(=O)[nH]c2=O)cc1	> 38.9
O=S(=O)(NCCCc1ccccc1)c1ccc(Br)cc1	10.7 (≈ 30.2 µM)
Cc1ccc2ccc(C)[n+](CCCS(=O)(=O)[O-])c2c1	12.4 (≈ 44.4 µM)
NC(=O)c1ccc(NC(=O)C2CCCC2)cc1	> 34.8
COc1cc(C(NC=O)C(=O)Nc2c(C)cccc2C)ccc1O (stereo not given)	45.4 (≈ 138 µM)
O=C(c1ccccc1)N1CCN(S(=O)(=O)N2CCCCCC2)CC1	> 52.7
CC(NC(=O)NC(=O)c1cccc([N+](=O)[O-])c1)C1CC1 (stereo not given)	3.8 (≈ 13.7 µM)
COc1cc2ncnc(NCc3ccc4c(c3)OCO4)c2cc1OC	3.3 (≈ 9.72 µM)
Cc1nc2ccccc2c(=O)n1CCCN1CCOCC1	> 43.1
COc1cccc(CNc2nccs2)c1O	> 35.4
CCOC(=O)C1CCCN(Cc2nc(CC3CC3)no2)C1 (stereo not given)	40 (≈ 136 µM)
CCOc1cccc(NC(=O)c2cnccc2C(F)(F)F)c1	43.2 (≈ 139 µM)
CCCc1cc(=O)[nH]c(SCC(=O)NC2CCCCCCC2)n1	14.5 (≈ 43 µM)
O=C(CCN1C(=O)c2ccccc2C1=O)NCc1cccc(Cl)c1	32.4 (≈ 94.5 µM)

Compound	solubility kinetic [µg/mL]
COc1cc(N2CCCC2)ccc1C=O	29 (≈ 141 µM)
Cc1ccc(CC(=O)NCCC(=O)O)cc1	> 33.2
O=C(Cn1c(=O)oc2ccccc21)Nc1cccc(Cl)c1	2.1 (≈ 6.94 µM)
Cc1cccc(-c2nc(-c3ccncc3)no2)c1	3.4 (≈ 14.3 µM)
O=C(/C=C/c1ccco1)c1cccnc1	23.8 (≈ 119 µM)
Cc1ccc(C(=O)Cn2cncn2)cc1.Cl	> 35.7
COc1ccc2[nH]c3c(=O)n(CCN4CCOCC4)cnc3c2c1	> 49.3
COc1cccc(C(NC(C)=O)c2ccc3cccnc3c2O)c1 (stereo not given)	44.4 (≈ 138 µM)
CC(C)(C)N(Cc1ccccc1)C(=O)CN1C(=O)c2ccccc2S1(=O)=O	15.7 (≈ 40.6 µM)
O=C(NCc1ccccc1)c1ccc(Cl)cc1	3.8 (≈ 15.5 µM)
Cc1ccc(S(=O)(=O)N(CC2CO2)c2cccc([N+](=O)[O-])c2)cc1 (stereo not given)	43.9 (≈ 126 µM)
CC1(C)Oc2ccc3ccc(=O)oc3c2C(/C=N/O)=C1Cl	12.5 (≈ 40.9 µM)
O=C(O)c1c2c(nc3ccc(Cl)cc13)CCC2	32.1 (≈ 130 µM)
CN(C)c1ccc(CCc2ccc(N)cc2)cc1	21 (≈ 87.4 µM)
CC(=O)NC(CC(=O)Nc1nc(C)cs1)c1ccccc1 (stereo not given)	> 45.5
O=C(NCCCCc1ccccc1)c1cccc([N+](=O)[O-])c1	8.5 (≈ 28.5 µM)
O=c1c2cc(-c3ccccc3)sc2nc2n1CCC2	1.5 (≈ 5.59 µM)
c1ccc2sc(NCC3CCCO3)nc2c1 (stereo not given)	> 35.1
COc1ccc(/C=C/C(=O)OCC(=O)NC2CCCC2)cc1OC	48.6 (≈ 146 µM)
Cc1cc(SCc2ccccc2C)nc(=O)[nH]1	30.7 (≈ 125 µM)
CCC1CCC2(CC1)NC(=O)N(CC(=O)N1CCc3ccccc31)C2=O (stereo not given)	3.4 (≈ 9.57 µM)
Nc1ccc(N2CCOCC2)c(S(=O)(=O)Nc2ccccc2Cl)c1	31.7 (≈ 86.2 µM)
CS(=O)(=O)N1CCc2nc(-c3ccccc3)sc2C1	10.4 (≈ 35.3 µM)
Cc1ccc(NC(=O)C2CC(=O)N(C(C)C)C2)cc1C (stereo not given)	> 41.2

Compound	solubility kinetic [µg/mL]
CCCN1CCC(NC(=O)Cc2ccccc2C)CC1	33.4 (≈ 122 µM)
O=S1(=O)N=C(N2CCCC2)c2ccccc21	31.4 (≈ 133 µM)
CCOCCCNC(=O)N[C@H](C(=O)OC)C(C)CC (stereo not given in full)	> 41.2
COc1ccccc1C(=O)NCC(=O)N1CCN(C/C=C/c2ccccc2)CC1	> 59
CC(C)OC(=O)c1cc2c(=O)[nH]c(C(Cl)(Cl)Cl)nc2o1	47.6 (≈ 140 µM)
O=C(NCc1ccco1)c1ccccc1O	22.9 (≈ 105 µM)
CC(C(N)=O)N1C(=O)NC2(CCCc3ccccc32)C1=O (stereo not given)	> 43.1
Cc1ccc(-c2noc(=O)n2CC(=O)c2ccc(Cl)cc2)cc1	< 0.4
COCCCNS(=O)(=O)c1cc2c3c(c1)C(C)C(=O)N3CCC2 (stereo not given)	> 50.8
N#CC1=C(N)Oc2cc(N)ccc2C1c1ccccc1Cl (stereo not given)	32.9 (≈ 110 µM)
CN1C2=CC=CC=CC2=[N+](C)C12C([N+](=O)[O-])=CC(=[N+]([O-])[O-])C=C2[N+](=O)[O-] (stereo not given)	0.7 (≈ 1.95 µM)
NC(=O)COC(=O)c1c2c(nc3ccccc13)CCCCC2	> 44.8
O=C(COC(=O)Cc1c[nH]c2ccccc12)Nc1cc(S(=O)(=O)N2CCOCC2)ccc1Cl	12.7 (≈ 25.8 µM)
CCc1ccc(N(C(C)=O)c2nc(CCl)cs2)cc1	> 44.2
S=C(NCc1ccccc1)Nc1cccc2ccccc12	3.8 (≈ 13 µM)
CCc1nc(N=C(N)N)nc2ccccc12	28 (≈ 130 µM)
CC(C)NC(=O)/C(C#N)=C\c1ccc(N(C)C)o1	> 37.1
CC(Sc1ncccn1)C(=O)N1CCc2ccccc21 (stereo not given)	33.3 (≈ 117 µM)
Cc1cc(=O)[nH]c(SCC(=O)N2CCN(C(=O)c3ccco3)CC2)n1	> 54.4
O=C(/C=C/c1ccc(F)cc1)N1CCN(Cc2ccccc2)CC1	44.5 (≈ 137 µM)
Cc1ccccc1-n1c(O)c(/C=N/NC(=O)c2ccncc2)c(=O)[nH]c1=O	> 54.8
CCOc1ccccc1Nc1ccc2nonc2c1[N+](=O)[O-]	< 0.2
C#CC[N+](CC)(CC)CC#Cc1ccccc1.[Br-]	37.8
O=C(/C=C(\O)c1ccccc1)C(=O)NNC(=O)c1ccccc1	> 46.5

Compound	solubility kinetic [µg/mL]
COC(=O)c1sccc1NC(=O)Nc1cccc([N+](=O)[O-])c1	5.7 (≈ 17.7 µM)
CC(=O)Nc1nc2c(C)cc(NC(=O)C3CCCCC3)cc2s1	0.7 (≈ 2.11 µM)
COc1cc([N+](=O)[O-])cc2sc(NC(C)=O)nc12	2.7 (≈ 10.1 µM)
COc1ccc2c(c1)C=C(CN1CCN(C(C)C)C(CCO)C1)CO2 (stereo not given)	34.5 (≈ 99.6 µM)
CC1CN(C(=O)/C(=C/c2ccco2)NC(=O)c2ccccc2)CC(C)O1 (stereo not given)	> 53.2
CCC(NC(=O)c1cncc(Br)c1)c1ccccc1 (stereo not given)	> 47.9
N#C/C(=C/c1ccco1)C(N)=S	> 26.7
O=C1c2ccccc2C(=O)N1C(CO)C(O)c1ccc([N+](=O)[O-])cc1 (stereo not given)	> 51.3
COc1ccccc1NC(=O)Nc1ccncc1	16.5 (≈ 67.8 µM)
OC(CN1CCN(c2cccc(Cl)c2)CC1)c1ccc(F)cc1 (stereo not given)	12.2 (≈ 36.4 µM)
NC(=O)c1ccsc1NC(=O)COC(=O)/C=C/c1ccccc1[N+](=O)[O-]	4.3 (≈ 11.5 µM)
CCCNC(=O)C(=O)NCC1CCCN1CC (stereo not given)	36 (≈ 149 µM)
O=C(CNC(=O)c1ccc(Cl)cc1)c1ccc(Cl)cc1	9 (≈ 29.2 µM)
CC(C)(C)c1ccccc1NC(=O)CN1C(=O)NC2(CCCC2)C1=O	6.1 (≈ 17.8 µM)
COc1cccc(NC(=O)N(CCN(C)C)C(C)c2cccnc2)c1 (stereo not given)	> 51.4
O=S(=O)(c1ccccc1)c1nc(NC2CC2)sc1Cl	42.8 (≈ 136 µM)
O=C1C=C(Nc2ccc(F)cc2)c2ccccc2C1=O	< 0.6
CC1CC(C)CN(C(=O)c2ccc(S(=O)(=O)N3CCCCC3)cc2)C1 (stereo not given)	5.1 (≈ 14 µM)
CC(C)(C)c1csc(NC(=O)c2cccnc2Cl)n1	40.4 (≈ 137 µM)
O=C(Nc1ccccc1F)OC1CN2CCC1CC2 (stereo not given)	> 39.6
Cc1cnc(C(=O)Oc2cccc(Cl)c2Cl)cn1	35.4 (≈ 125 µM)
CN1CCN(CC(=O)Nc2ccccc2Oc2ccccc2)CC1	> 48.8
Cc1ccc(N(CC(=O)NCC2CCCO2)S(=O)(=O)c2ccc(Cl)cc2)cc1C (stereo not given)	40.2 (≈ 92 µM)
CC1C=CCC2C(=O)N(c3ccc(OC(=O)c4ccco4)cc3)C(=O)C12 (stereo not given)	18 (≈ 51.2 µM)

Compound	solubility kinetic [µg/mL]
Cc1nc(SCC(=O)Nc2ccccc2Cl)oc1C	> 44.5
CC(=O)NCCc1nc2cc(NS(=O)(=O)c3ccccc3)ccc2n1C	> 55.9
Cc1nn(CCCC(=O)O)c(C)c1[N+](=O)[O-]	> 34.1
O=C(NC12CC3CC(CC(C3)C1)C2)c1ccco1	36.5 (≈ 149 µM)
COc1cccc2[nH]c3c(N4CCC5(CC4)OCCO5)ncnc3c12	> 51.1
CC(=O)c1ccccc1NC(=O)CSc1nc2ccccc2c(=O)n1CCCN1CCOCC1	1.8 (≈ 3.75 µM)
CCN1CCc2c(OCC(=O)Nc3ccc4c(c3)OCCO4)cccc2C1=O	29.8 (≈ 77.9 µM)
CN(c1ccccc1)S(=O)(=O)c1cccc(NC(=O)CSc2nccc(=O)[nH]2)c1	> 64.6
O=C(Cc1ccccc1F)Nc1nc2ccccc2[nH]1	2.7 (≈ 10 µM)
COc1ccccc1C1CCN(Cc2ccccc2)CC1	31.1 (≈ 111 µM)
Cc1oc(S(=O)(=O)N(C)C)cc1C(=O)Nc1ccc(F)cc1	2.3 (≈ 7.05 µM)
CCOC(=O)/C(C#N)=C/C=C1/C=CC=CN1C	> 34.5
N#Cc1ccccc1NC(=O)CN1C(=O)NC2(CCCC2)C1=O	> 46.8
O=C1c2ccccc2NC(c2cccc(O)c2)N1c1ccccc1 (stereo not given)	2.9 (≈ 9.17 µM)
O=C(CSc1ccccc1C(=O)N1CCN(c2ccc([N+](=O)[O-])cc2)CC1)N1CCCC1	> 68.2
CCOC(=O)C1CCCNC1=O (stereo not given)	> 25.7
CCC(CO)NCC#Cc1ccccc1.Cl (stereo not given)	> 36
CC(N=C1NC(C)(C)Cc2ccccc21)C(=O)O (stereo not given)	33.2 (≈ 135 µM)
CC1CCCN1CC#CC(O)(c1ccccc1)c1ccccc1.Cl (stereo not given)	46.9
N#CC1(NC(=O)COC(=O)/C=C/c2ccc3ccccc3n2)CCCCC1	3 (≈ 8.25 µM)
CN(C1(C)CCS(=O)(=O)C1)S(=O)(=O)c1cccc([N+](=O)[O-])c1 (stereo not given)	> 52.3
O=S1(=O)CC(O)C(NCCO)C1 (stereo not given)	> 29.3
Cc1ccc(C(=O)NC(=S)NCc2cccnc2)cc1C	26.9 (≈ 89.8 µM)
C=CC(=O)Oc1ccc(N2Cc3ccccc3C2=O)cc1	2.4 (≈ 8.59 µM)

Source: PubChem BioAssay AID1996
